Assay results: patent US10351575B2, “Bicyclic urea, thiourea, guanidine and cyanoguanidine compounds useful for the treatment of pain” (Array BioPharma Inc., priority 2012, dated 2019)

Each compound was assayed against His-tagged recombinant human TrkA (Homo sapiens (Human), UniProt P04629) (assay: TrkA LanthaScreen Eu Kinase Binding Assay). Conditions: averaged IC50; TR-FRET binding, 60 min, 22° C.; read-out: TrkA Enzyme IC50.
Procedure: TrkA binding activity was determined in a TrkA LanthaScreen™ Eu Kinase Binding Assay. 5 nM His-tagged recombinant human TrkA (6HIS tagged cytoplasmic domain from Invitrogen, Catalog No. PV3144) was incubated with 4 nM Alexa-Fluor® Tracer 236 (Invitrogen Cat. No. PV5592), 2 nM biotinylated anti-His (Invitrogen Cat. No. PV6090), and 2 nM europium-labeled Streptavidin (Invitrogen Cat. No. PV5899), in buffer (25 mM MOPS, pH 7.5, 5 mM MgCl2, 0.005% Triton X-100). Three fold serial dilutions of compounds of the invention in DMSO were added to a final percentage of 2% DMSO. After 60-minute incubation at 22° C., the reaction was measured using the EnVision mutlimode plate reader (PerkinElmer) via TR-FRET dual wavelength detection at […]. The percent of control was calculated using a ratiometric emission factor. The IC50 values were determined by fitting a four parameter model to the percent of control data.

His-tagged recombinant human TrkA, sequence (P04629 440-796): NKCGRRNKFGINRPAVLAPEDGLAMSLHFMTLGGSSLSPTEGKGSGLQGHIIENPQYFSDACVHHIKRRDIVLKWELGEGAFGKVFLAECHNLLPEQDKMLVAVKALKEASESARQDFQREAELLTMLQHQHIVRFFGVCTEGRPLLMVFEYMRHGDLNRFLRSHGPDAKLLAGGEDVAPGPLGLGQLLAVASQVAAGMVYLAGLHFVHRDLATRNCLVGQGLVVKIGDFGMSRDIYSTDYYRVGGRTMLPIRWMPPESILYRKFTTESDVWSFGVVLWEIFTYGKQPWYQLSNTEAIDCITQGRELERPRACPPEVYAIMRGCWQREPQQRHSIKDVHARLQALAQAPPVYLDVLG

IC50, < 100 nM:
Cc1c(-c2cnn(C)c2)nn(-c2ccccc2)c1NC(=O)N[C@@H]1c2ccccc2C2(CC2)[C@H]1O (relative stereo) [Example 55, 1-(1′,4-dimethyl-1-phenyl-1H,1′H-[3,4′-bipyrazol]-5-yl)-3-(trans-2′-hydroxy-2′,3′-dihydrospiro[cyclopropane-1,1′-inden]-3′-yl)urea]
Cc1ncc(-c2nn(-c3ccccc3)c(NC(=O)N[C@@H]3c4ccccc4C4(CC4)[C@H]3O)c2C)cn1 (relative stereo) [Example 56, 1-(trans-2′-hydroxy-2′,3′-dihydrospiro[cyclopropane-1,1′-inden]-3′-yl)-3-(4-methyl-3-(2-methylpyrimidin-5-yl)-1-phenyl-1H-pyrazol-5-yl)urea]
COc1ncc(-c2nn(-c3ccccc3)c(NC(=O)N[C@@H]3c4ccccc4C4(CC4)[C@H]3O)c2C)cn1 (relative stereo) [Example 57, 1-(trans-2′-hydroxy-2′,3′-dihydrospiro[cyclopropane-1,1′-inden]-3′-yl)-3-(3-(2-methoxypyrimidin-5-yl)-4-methyl-1-phenyl-1H-pyrazol-5-yl)urea]
Cc1c(-c2cnn(C)c2)nn(-c2ccccc2)c1NC(=O)N[C@@H]1c2cc(F)c(F)cc2C2(CC2)[C@H]1O (relative stereo) [Example 58, 1-(trans-5′,6′-difluoro-2′-hydroxy-2′,3′-dihydrospiro[cyclopropane-1,1′-inden]-3′-yl)-3-(1′,4-dimethyl-1-phenyl-1H,1′H-[3,4′-bipyrazol]-5-yl)urea]
COc1nn(-c2ccccc2)c(NC(=O)N[C@@H]2c3ccccc3C3(CC3)[C@H]2O)c1C (relative stereo) [Example 60, 1-(trans-2′-hydroxy-2′,3′-dihydrospiro[cyclopropane-1,1′-inden]-3-yl)-3-(3-methoxy-4-methyl-1-phenyl-1H-pyrazol-5-yl)urea]
CCOc1nn(-c2ccccc2)c(NC(=O)N[C@@H]2c3ccccc3C3(CC3)[C@H]2O)c1C (relative stereo) [Example 61, 1-(3-ethoxy-4-methyl-1-phenyl-1H-pyrazol-5-yl)-3-(trans-2′-hydroxy-2′,3′-dihydrospiro[cyclopropane-1,1-inden]-3-yl)urea]
COc1nn(-c2ccccc2)c(NC(=O)N[C@@H]2c3cc(F)c(F)cc3C3(CC3)[C@H]2O)c1C (relative stereo) [Example 62, 1-(trans-5′,6′-difluoro-2′-hydroxy-2′,3′-dihydrospiro[cyclopropane-1,1′-inden]-3′-yl)-3-(3-methoxy-4-methyl-1-phenyl-1H-pyrazol-5-yl)urea]
Cc1c(-c2cnn(C)c2)nn(-c2ccccc2)c1NC(=O)N[C@@H]1c2cc(F)ccc2C2(CC2)[C@H]1O (relative stereo) [Example 63, 1-(1′,4-dimethyl-1-phenyl-1H,1′H-[3,4′-bipyrazol]-5-yl)-3-(trans-5′-fluoro-2′-hydroxy-2′,3′-dihydrospiro[cyclopropane-1,1′-inden]-3′-yl)urea]
Cc1c(-c2cnn(C)c2)nn(-c2ccccc2)c1NC(=O)N[C@@H]1c2ccc(F)cc2C2(CC2)[C@H]1O (relative stereo) [Example 64, 1-(1′,4-dimethyl-1-phenyl-1H,1′H-[3,4′-bipyrazol]-5-yl)-3-(trans-6′-fluoro-2′-hydroxy-2′,3′-dihydrospiro[cyclopropane-1,1′-inden]-3′-yl)urea]
Cc1c(NC(=O)N[C@@H]2c3ccccc3C(C)(C)C[C@H]2O)n(-c2ccccc2)[nH]c1=O (relative stereo) [Example 95, 1-(trans-2-hydroxy-4,4-dimethyl-1,2,3,4-tetrahydronaphthalen-1-yl)-3-(4-methyl-5-oxo-2-phenyl-2,5-dihydro-1H-pyrazol-3-yl)urea]
COc1nn(-c2ccccc2)c(NC(=O)N[C@@H]2c3ccccc3C(C)(C)C[C@H]2O)c1C (relative stereo) [Example 97, 1-(trans-2-hydroxy-4,4-dimethyl-1,2,3,4-tetrahydronaphthalen-1-yl)-3-(3-methoxy-4-methyl-1-phenyl-1H-pyrazol-5-yl)urea]
COC(=O)c1ccc2c(c1)[C@@H](NC(=O)Nc1c(C)c(C)nn1-c1ccccc1)[C@H](O)CC2(C)C (relative stereo) [Example 99, trans-methyl 8-(3-(3,4-dimethyl-1-phenyl-1H-pyrazol-5-yl)ureido)-7-hydroxy-5,5-dimethyl-5,6,7,8-tetrahydronaphthalene-2-carboxylate]
Cc1c(-c2cnn(C)c2)nn(-c2ccccc2)c1NC(=O)N[C@@H]1c2ccccc2CC[C@H]1O (relative stereo) [Example 101, 1-(1′,4-dimethyl-1-phenyl-1H,1′H-[3,4′-bipyrazol]-5-yl)-3-(trans-2-hydroxy-1,2,3,4-tetrahydronaphthalen-1-yl)urea]
COCc1ccc2c(c1)[C@@H](NC(=O)Nc1c(C)c(-c3cnn(C)c3)nn1-c1ccccc1)[C@H](O)CC2(C)C (relative stereo) [Example 102, 1-(1′,4-dimethyl-1-phenyl-1H,1′H-[3,4′-bipyrazol]-5-yl)-3-(trans-2-hydroxy-7-(methoxymethyl)-4,4-dimethyl-1,2,3,4-tetrahydronaphthalen-1-yl)urea]
Cc1c(-c2cnn(C)c2)nn(-c2ccccc2)c1NC(=O)N[C@@H]1c2cc(Cl)ccc2C(C)(C)C[C@H]1O (relative stereo) [Example 104, 1-(trans-7-chloro-2-hydroxy-4,4-dimethyl-1,2,3,4-tetrahydronaphthalen-1-yl)-3-(1′,4-dimethyl-1-phenyl-1H,1′H-[3,4′-bipyrazol]-5-yl)urea]
Cc1c(-c2cnn(C)c2)nn(-c2ccccc2)c1NC(=O)N[C@@H]1c2ccccc2C(C)(C)C[C@H]1O (relative stereo) [Example 105, 1-(1′,4-dimethyl-1-phenyl-1H,1′H-[3,4′-bipyrazol]-5-yl)-3-(trans-2-hydroxy-4,4-dimethyl-1,2,3,4-tetrahydronaphthalen-1-yl)urea]
Cc1c(-c2ccc(=O)n(C)c2)nn(-c2ccccc2)c1NC(=O)N[C@@H]1c2ccccc2C(C)(C)C[C@H]1O (relative stereo) [Example 106, 1-(trans-2-hydroxy-4,4-dimethyl-1,2,3,4-tetrahydronaphthalen-1-yl)-3-(4-methyl-3-(1-methyl-6-oxo-1,6-dihydropyridin-3-yl)-1-phenyl-1H-pyrazol-5-yl)urea]
Cc1c(-c2ccn(C)c(=O)c2)nn(-c2ccccc2)c1NC(=O)N[C@@H]1c2ccccc2C(C)(C)C[C@H]1O (relative stereo) [Example 107, 1-(trans-2-hydroxy-4,4-dimethyl-1,2,3,4-tetrahydronaphthalen-1-yl)-3-(4-methyl-3-(1-methyl-2-oxo-1,2-dihydropyridin-4-yl)-1-phenyl-1H-pyrazol-5-yl)urea]
Cc1ncc(-c2nn(-c3ccccc3)c(NC(=O)N[C@@H]3c4ccccc4CC[C@H]3O)c2C)cn1 (relative stereo) [Example 118, 1-(trans-2-hydroxy-1,2,3,4-tetrhydronaphthalen-1-yl)-3-(4-methyl-3-(2-methylpyrimidin-5-yl)-1-phenyl-1H-pyrazol-5-yl)urea]
COc1ncc(-c2nn(-c3ccccc3)c(NC(=O)N[C@@H]3c4ccccc4CC[C@H]3O)c2C)cn1 (relative stereo) [Example 119, 1-(trans-2-hydroxy-1,2,3,4-tetrahydronaphthalen-1-yl)-3-(3-(2-methoxypyrimidin-5-yl)-4-methyl-1-phenyl-1H-pyrazol-5-yl)urea]
CNC(=O)c1nn(-c2ccccc2)c(NC(=O)N[C@@H]2c3cc(COC)ccc3C(C)(C)C[C@H]2O)c1C (relative stereo) [Example 120, 5-(3-(trans-2-hydroxy-7-(methoxymethyl)-4,4-dimethyl-1,2,3,4-tetrahydronaphthalen-1-yl)ureido)-N,4-dimethyl-1-phenyl-1H-pyrazole-3-carboxamide]
Cc1nn(-c2ccccc2)c(NC(=O)N[C@@H]2c3ccccc3CC[C@H]2O)c1C (relative stereo) [Example 121, 1-(3,4-dimethyl-1-phenyl-1H-pyrazol-5-yl)-3-(trans-2-hydroxy-1,2,3,4-tetrahydronaphthalen-1-yl)urea]
Cc1c(OCC2CCN(C)CC2)nn(-c2ccccc2)c1NC(=O)N[C@@H]1c2ccccc2C(C)(C)C[C@H]1O (relative stereo) [Example 122, 1-(trans-2-hydroxy-4,4-dimethyl-1,2,3,4-tetrahydronaphthalen-1-yl)-3-(4-methyl-3-((1-methylpiperidin-4-yl)methoxy)-1-phenyl-1H-pyrazol-5-yl)urea]
Cc1c(OCC2CCN(C)CC2)nn(-c2ccccc2)c1NC(=O)N[C@@H]1c2ccccc2CC[C@H]1O (relative stereo) [Example 123, 1-(trans-2-hydroxy-1,2,3,4-tetrahydronaphthalen-1-yl)-3-(4-methyl-3-((1-methylpiperidin-4-yl)methoxy)-1-phenyl-1H-pyrazol-5-yl)urea]
